In US10029986B2, “Alkynyl pyridine-substituted amide compound and pesticide” (NISSAN CHEMICAL INDUSTRIES, LTD., priority 2014, dated 2018):

Columns and labels:
Botrytis cinerea = experiment: Test on the preventive effect against cucumber gray mold (mycelium inoculation); format: in vivo; conditions: 48 h, test solution A 500 ppm, 5 ml per pot, cucumber cotyledon, agar block inoculation, 2 days at 20° C.
Procedure, shortened: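 Cucumber cotyledons (Sagami Hanjiro) were sprayed with 5 ml per pot of a 500 ppm dilution of a 20 wt % emulsifiable concentrate. Next day, mycelial agar plugs of Botrytis cinerea were placed on cotyledons, held humid at 20° C for 2 days. Lesion proportion gave the control value; duplicate.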

Sclerotinia sclerotiorum = experiment: Test on the preventive effect against cucumber stem rot; format: in vivo; conditions: 48 h, test solution A 500 ppm, 5 ml per pot, agar block inoculation, 2 days at 20° C.
Procedure, shortened: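 Cucumber (Sagami Hanjiro) at cotyledon stage sprayed with 5 ml/pot of 500 ppm compound from a 20 wt % emulsifiable concentrate, air-dried, then inoculated on seed leaves with agar blocks of S. sclerotiorum grown on PDA. Kept humid at 20° C for 2 days; lesion proportion scored and control value calculated, in duplicate.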

[1] = test system: Blumeria graminis f. sp. tritici; experiment: Test on the preventive effect against wheat powdery mildew; format: in vivo; conditions: 168 h, test solution A 500 ppm, 5 ml per pot, wheat 1.3-leaf stage, 7 days after inoculation
Procedure, shortened: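 Compounds formulated as 20 wt % emulsifiable concentrates and diluted with water to 500 ppm; 5 ml per pot applied to wheat (Norin 61) at the 1.3-leaf stage. Conidia inoculated one day later in a 20° C greenhouse; lesion proportion scored after 7 days as control value, in duplicate.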

[2] = test system: Phaeosphaeria nodorum (Synonym: Septoria nodorum); experiment: Test on the preventive effect against wheat glume blotch; format: in vivo; conditions: Parastagonospora nodorum, 144 h; test solution A 500 ppm, 5 ml per pot, wheat 1.3-leaf stage, 2 days inoculation chamber then 6 days at 20° C.
Procedure, shortened: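 Wheat (cv. Haruyutaka) at 1.3-leaf stage sprayed with compound at 500 ppm as diluted emulsifiable concentrate, then inoculated one day later with conidial suspension. Kept 2 days at 20° C and 100% RH, then 6 days in a greenhouse at 20° C. Control value derived from lesion proportion on inoculated leaves; duplicate.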

Asperaillus niger = experiment: Test on the antifungal activity against Asperaillus niger; format: cell-based; conditions: 48 h; test solution B 100 ppm, 10 μl per well, 96 well plate, 25° C. dark, 2 days after treatment; read-out: efficacy (flora area ratio relative to non-treated well)
Experimental: Compounds of the present invention were dissolved in dimethyl sulfoxide to prepare 1 wt % solutions. Then, distilled water was added to dilute the solutions to the prescribed concentration (100 ppm), and the obtained solutions were used in the following the Test Examples 9 to 12. 60 μl of a potato dextrose 1% agar medium was added to each well of a 96 well plate, and 30 μl of sterilized water containing spores of Asperaillus niger (10 spores/3 μl) was added to each well. Further, 10 μl per well of test solution B of the compounds of the present invention was added, and the plate was left at rest at 25° C. under dark conditions. 2 days after treatment, the flora area ratio (%) was determined to calculate the efficacy (%) relative to the non-treated well in accordance with the following formula. Efficacy (%)=[1−(flora area ratio in treated plot/flora area ratio in non-treated well)]×100

[3] = test system: Barber pole worm (Haemonchus contortus); experiment: Insecticidal test against Barber pole worm (eggs, 96 well plate); format: in vivo; conditions: 96 h, test solution B 100 ppm, 10 μl per well, 25° C. dark, 4 days after treatment, read-out: efficacy (unhatched eggs and inactive larvae relative to non-treated)
Experimental: Compounds of the present invention were dissolved in dimethyl sulfoxide to prepare 1 wt % solutions. Then, distilled water was added to dilute the solutions to the prescribed concentration (100 ppm), and the obtained solutions were used in the following the Test Examples 9 to 12. 60 μl of a potato dextrose 1% agar medium was added to each well of a 96 well plate, and 30 μl of sterilized water containing eggs of Barber pole worm (Haemonchus contortus) (10 eggs/3 μl) was added to each well. Further, 10 μl per well of test solution B of the compounds of the present invention was added, and the plate was left at rest at 25° C. under dark conditions.

Row | SMILES | pest or weed control at 500 µg/mL (Botrytis cinerea) [%] | pest or weed control at 500 µg/mL (Sclerotinia sclerotiorum) [%] | pest or weed control at 500 µg/mL [1] [%] | pest or weed control at 500 µg/mL [2] [%] | inhibition of growth at 100 µg/mL (Asperaillus niger) [%] | pest or weed control at 100 µg/mL [3] [%]
1 | COC(c1ncc(C#CC2CC2)cc1Cl)C(C)NC(=O)c1cn(C)nc1C(F)F (stereo not drawn) [8-028, N-[2-[3-chloro-5-(cyclopropylethynyl)pyridin-2-yl]-2-methoxy-1-methylethyl]-3-difluoromethyl-1-methyl-1H-pyrazole-4-carboxamide] | ≥ 70 | ≥ 70 | ≥ 70 | ≥ 70 | ≥ 50 | ≥ 50
2 | CC(C)(C)C#Cc1cnc(CCNC(=O)c2ccccc2C(F)(F)F)c(Cl)c1 [1-003, N-[2-[3-chloro-5-(3,3-dimethyl-1-butynyl)pyridin-2-yl]ethyl]-2-(trifluoromethyl)benzamide] | ≥ 70 | ≥ 70 | ≥ 70 | ≥ 70 | ≥ 50 | ≥ 50
3 | O=C(NCCc1ncc(C#CC2CC2)cc1Cl)c1cccnc1C(F)F [3-001, N-[2-[3-chloro-5-(cyclopropylethynyl)pyridin-2-yl]ethyl]-2-(difluoromethyl)nicotinamide] | ≥ 70 | ≥ 70 | ≥ 70 | ≥ 70 | ≥ 50 | ≥ 50
4 | CC(C)(CNC(=O)c1ccccc1C(F)(F)F)c1ncc(C#CC2CC2)cc1Cl [1-008] | ≥ 70 | ≥ 70 | ≥ 70 | ≥ 70 | ≥ 50 | ≥ 50
5 | C=C(CNC(=O)c1ccccc1C(F)(F)F)c1ncc(C#CC)cc1Cl [1-012, N-[2-[3-chloro-5-(1-propynyl)pyridin-2-yl]-2-propenyl]-2-(trifluoromethyl)benzamide] | ≥ 70 | ≥ 70 | ≥ 70 | ≥ 70 | ≥ 50 | ≥ 50
6 | O=C(NCCc1ncc(C#CC2CC2)cc1Cl)c1ccccc1C(F)(F)F [1-002] | ≥ 70 | ≥ 70 | ≥ 70 | ≥ 70 | ≥ 50 | ≥ 50
7 | Cc1nc(C(F)F)c(C(=O)NCC(C)c2ncc(C#CC3CC3)cc2Cl)s1 (stereo not drawn) [9-002] | ≥ 70 | ≥ 70 | ≥ 70 | ≥ 70 | ≥ 50 | ≥ 50
8 | COC(c1ncc(C#CC(C)(C)C)cc1Cl)C(C)NC(=O)c1ccccc1C(F)(F)F (stereo not drawn) [1-025] | ≥ 70 | ≥ 70 | ≥ 70 | ≥ 70 | ≥ 50 | ≥ 50
9 | CSC(CNC(=O)c1ccccc1C(F)(F)F)c1ncc(C#CC2CC2)cc1Cl (stereo not drawn) [1-021] | ≥ 70 | ≥ 70 | ≥ 70 | ≥ 70 | ≥ 50 | ≥ 50
10 | CC(CNC(=O)c1cccnc1Cl)c1ncc(C#CC2CC2)cc1Cl (stereo not drawn) [3-005] | ≥ 70 | ≥ 70 | ≥ 70 | ≥ 70 | ≥ 50 | ≥ 50
11 | COC(c1ncc(C#CC2CC2)cc1Cl)C(C)NC(=O)c1ccccc1C(F)(F)F (stereo not drawn) [1-024] | ≥ 70 | ≥ 70 | ≥ 70 | ≥ 70 | ≥ 50 | ≥ 50
